These are literature values, as cited in paper PMC8513935.

Series [1] in a line: derived by the authors as gas->solvent minus gas->water (a hypothetical dry solvent; the ESI), not a two-phase measurement.
A short description of series [2]: log P octanol/water from commercial databases, averaged (the ESI). Particulars: Octanol (wet), 25 C.
The nature of series [3]: experimental, compiled by the authors from the literature (the ESI cites the sources).

On to `c1ccccc1`, for which the log K of transfer, water to solvent in series [1] (1,2-Dichloroethane, 25 C) was 2.69 log10 K; in series [1] (2-Methylpropan-1-ol, 25 C), 2.09 log10 K; in series [1] (2-Methylpropan-2-ol, 25 C) it was 2.09 log10 K; in series [1] (Acetone, 25 C) it was 2.58 log10 K; in series [1] (Acetonitrile, 25 C) it was 2.43 log10 K; in series [1] (Benzene, 25 C), 2.71 log10 K. Also, the log K of transfer, water to solvent is 2.24 log10 K in series [1] (Butan-1-ol, 25 C); 2.14 log10 K in series [1] (Butan-2-ol, 25 C); 2.66 log10 K in series [1] (Butanone, 25 C); 2.6 log10 K in series [1] (Butyronitrile, 25 C); 2.61 log10 K in series [1] (CCl4, 25 C); 2.61 log10 K in series [1] (Chlorobenzene, 25 C). Moreover, the log K of transfer, water to solvent in series [1] (Chloroform, 25 C) is 2.76 log10 K; in series [1] (Cyclohexane, 25 C), 2.3 log10 K; in series [1] (Cyclohexanone, 25 C), 2.67 log10 K; in series [1] (Decan-1-ol, 25 C), 2 log10 K; in series [1] (Di-n-butyl ether, 25 C), 2.38 log10 K; in series [1] (Dichloromethane, 25 C) it was 2.89 log10 K. Moreover, the log K of transfer, water to solvent was 2.15 log10 K in series [1] (Ethanol, 25 C); 2.18 log10 K in series [1] (Heptan-1-ol, 25 C); 2.15 log10 K in series [1] (Hexadecane, 25 C); 2.31 log10 K in series [1] (Hexane, 25 C); 2.14 log10 K in series [1] (Methanol, 25 C); 2.17 log10 K in series [1] (Octan-1-ol(dry), 25 C). The log K of transfer, water to solvent in series [1] (Pentan-1-ol, 25 C) was 2.2 log10 K; in series [1] (Propan-1-ol, 25 C), 2.15 log10 K; in series [1] (Propan-2-ol, 25 C), 2.04 log10 K; in series [1] (Propionitrile, 25 C) it was 2.6 log10 K; in series [1] (Tetrahydrofuran, 25 C) it was 2.85 log10 K; in series [1] (Toluene, 25 C), 2.64 log10 K. Further, the log K of transfer, water to solvent in series [2] was 2.08 log10 K.

On to `CCCC`, for which the log K of transfer, gas to solvent in series [3] (2-Methylpropan-1-ol, 25 C) is 1.49 log10 K; in series [3] (2-Methylpropan-2-ol, 25 C), 1.52 log10 K; in series [3] (3-Methylbutan-1-ol, 25 C) it was 1.48 log10 K; in series [3] (Butan-1-ol, 25 C), 1.37 log10 K; in series [3] (Butanone, 25 C), 1.69 log10 K; in series [3] (CCl4, 25 C) it was 1.96 log10 K. Also, the log K of transfer, gas to solvent in series [3] (Chlorobenzene, 25 C) is 1.7 log10 K; in series [3] (Cyclohexane, 25 C), 2.1 log10 K; in series [3] (Di-n-butyl ether, 25 C), 1.79 log10 K; in series [3] (Ethanol, 25 C) it was 1.4 log10 K; in series [3] (Heptan-1-ol, 25 C) it was 1.43 log10 K; in series [3] (Hexadecane, 25 C) it was 1.61 log10 K. For the same compound, the log K of transfer, gas to solvent in series [3] (Hexane, 25 C) is 1.87 log10 K; in series [3] (Methanol, 25 C), 1.27 log10 K; in series [3] (Octan-1-ol, 25 C) it was 1.53 log10 K; in series [3] (Pentan-1-ol, 25 C), 1.49 log10 K; in series [3] (Propan-1-ol, 25 C), 1.45 log10 K; in series [3] (Propan-2-ol, 25 C), 1.49 log10 K. Further, the log K of transfer, gas to solvent in series [3] (Propanone, 25 C) was 1.56 log10 K; in series [3] (Water, 25 C), -1.52 log10 K. Also, in series [2], the log K of transfer, water to solvent is 2.89 log10 K.

For `C`, the log K of transfer, water to solvent was 1.24 log10 K in series [1] (Acetone, 25 C); 1.15 log10 K in series [1] (Butan-1-ol, 25 C); 1.32 log10 K in series [1] (CCl4, 25 C); 1.13 log10 K in series [1] (Chlorobenzene, 25 C); 1.05 log10 K in series [1] (Decan-1-ol, 25 C); 1.48 log10 K in series [1] (Diethyl Ether, 25 C). For the same compound, the log K of transfer, water to solvent in series [1] (Ethanol, 25 C) was 1.17 log10 K; in series [1] (Heptan-1-ol, 25 C), 1.11 log10 K; in series [1] (Hexadecane, 25 C), 1.14 log10 K; in series [1] (Hexan-1-ol, 25 C), 1.12 log10 K; in series [1] (Hexane, 25 C), 1.44 log10 K; in series [1] (Methanol, 25 C) it was 1.19 log10 K. The log K of transfer, water to solvent in series [1] (Octan-1-ol(dry), 25 C) is 1.08 log10 K; in series [1] (Pentan-1-ol, 25 C), 1.13 log10 K; in series [1] (Perfluoroalkane, 25 C) it was 1.42 log10 K; in series [1] (Propan-1-ol, 25 C) it was 1.17 log10 K; in series [1] (Propan-2-ol, 25 C) it was 1.13 log10 K; in series [1] (Tetrahydrofuran, 25 C), 1.28 log10 K. In series [2], the log K of transfer, water to solvent was 1.09 log10 K.

As to `CCCCCC`, the log K of transfer, gas to solvent in series [3] (1,2-Dichloroethane, 25 C) is 2.51 log10 K; in series [3] (2-Methylpropan-1-ol, 25 C), 2.46 log10 K; in series [3] (2-Methylpropan-2-ol, 25 C), 2.44 log10 K; in series [3] (3-Methylbutan-1-ol, 25 C) it was 2.39 log10 K; in series [3] (Acetonitrile, 25 C) it was 1.96 log10 K; in series [3] (Benzene, 25 C), 2.65 log10 K. In addition, the log K of transfer, gas to solvent in series [3] (Butan-1-ol, 25 C) was 2.44 log10 K; in series [3] (Butanone, 25 C) it was 2.52 log10 K; in series [3] (Butyronitrile, 25 C), 2.34 log10 K; in series [3] (CCl4, 25 C), 2.98 log10 K; in series [3] (Chlorobenzene, 25 C), 2.95 log10 K; in series [3] (Chloroform, 25 C) it was 2.87 log10 K. In addition, the log K of transfer, gas to solvent in series [3] (Cyclohexanone, 25 C) is 2.44 log10 K; in series [3] (Di-n-butyl ether, 25 C), 2.82 log10 K; in series [3] (Dichloromethane, 25 C) it was 2.75 log10 K; in series [3] (Ethanol, 25 C) it was 2.24 log10 K; in series [3] (Heptan-1-ol, 25 C), 2.44 log10 K; in series [3] (Hexadecane, 25 C), 2.67 log10 K. The log K of transfer, gas to solvent is 2.48 log10 K in series [3] (Hexan-1-ol, 25 C); 2.97 log10 K in series [3] (Hexane, 25 C); 2.05 log10 K in series [3] (Methanol, 25 C); 2.44 log10 K in series [3] (Octan-1-ol, 25 C); 2.44 log10 K in series [3] (Pentan-1-ol, 25 C); 1.88 log10 K in series [3] (Perfluoroalkane, 25 C). Further, the log K of transfer, gas to solvent was 2.28 log10 K in series [3] (Propan-1-ol, 25 C); 2.3 log10 K in series [3] (Propan-2-ol, 25 C); 2.37 log10 K in series [3] (Propanone, 25 C); 2.22 log10 K in series [3] (Propionitrile, 25 C); 2.84 log10 K in series [3] (Tetrahydrofuran, 25 C); 2.82 log10 K in series [3] (Toluene, 25 C). The log K of transfer, gas to solvent in series [3] (Water, 25 C) was -1.82 log10 K. In series [2], the log K of transfer, water to solvent is 3.9 log10 K.

Consider `CCCCCCCCCCCCCC`, for which the log K of transfer, water to solvent in series [2] is 8 log10 K.

Turning to `CC1CCCCC1`, the log K of transfer, gas to solvent in series [3] (Butanone, 25 C) is 3.02 log10 K; in series [3] (Butyronitrile, 25 C), 2.99 log10 K; in series [3] (Heptan-1-ol, 25 C) it was 3.05 log10 K; in series [3] (Hexadecane, 25 C) it was 3.32 log10 K; in series [3] (Octan-1-ol, 25 C), 3.05 log10 K; in series [3] (Propan-2-ol, 25 C), 2.78 log10 K. In addition, the log K of transfer, gas to solvent in series [3] (Propanone, 25 C) is 2.88 log10 K; in series [3] (Propionitrile, 25 C), 2.85 log10 K; in series [3] (Tetrahydrofuran, 25 C), 3.42 log10 K; in series [3] (Water, 25 C), -1.25 log10 K. For the same compound, the log K of transfer, water to solvent in series [2] is 3.88 log10 K.

For `C=CCCC`, the log K of transfer, gas to solvent in series [3] (1,2-Dichloroethane, 25 C) is 2.1 log10 K; in series [3] (Butan-1-ol, 25 C) it was 1.94 log10 K; in series [3] (Butanone, 25 C), 2.11 log10 K; in series [3] (Chlorobenzene, 25 C), 2.21 log10 K; in series [3] (Cyclohexanone, 25 C), 2.03 log10 K; in series [3] (Hexadecane, 25 C), 2.05 log10 K. Also, the log K of transfer, gas to solvent in series [3] (Octan-1-ol, 25 C) was 1.93 log10 K; in series [3] (Water, 25 C) it was -1.23 log10 K. The log K of transfer, water to solvent in series [2] is 2.8 log10 K.

On to `CO`, for which the log K of transfer, water to solvent in series [1] (1,2-Dichloroethane, 25 C) was -1.58 log10 K; in series [1] (2-Methylpropan-1-ol, 25 C) it was -0.58 log10 K; in series [1] (2-Methylpropan-2-ol, 25 C), -0.35 log10 K; in series [1] (3-Methylbutan-1-ol, 25 C), -0.672 log10 K; in series [1] (Acetone, 25 C), -0.71 log10 K; in series [1] (Acetonitrile, 25 C) it was -0.81 log10 K. In addition, the log K of transfer, water to solvent in series [1] (Benzene, 25 C) was -1.85 log10 K; in series [1] (Butan-1-ol, 25 C), -0.72 log10 K; in series [1] (Butan-2-ol, 25 C), -0.45 log10 K; in series [1] (Butanone, 25 C), -0.93 log10 K; in series [1] (Butyronitrile, 25 C) it was -1.06 log10 K; in series [1] (CCl4, 25 C), -2.24 log10 K. The log K of transfer, water to solvent in series [1] (Chlorobenzene, 25 C) is -2.07 log10 K; in series [1] (Chloroform, 25 C), -1.33 log10 K; in series [1] (Cyclohexane, 25 C), -2.77 log10 K; in series [1] (Decan-1-ol, 25 C) it was -1.21 log10 K; in series [1] (Di-n-butyl ether, 25 C) it was -1.8 log10 K; in series [1] (Dichloromethane, 25 C), -1.45 log10 K. Besides, the log K of transfer, water to solvent in series [1] (Diethyl Ether, 25 C) was -1.26 log10 K; in series [1] (Ethanol, 25 C), -0.34 log10 K; in series [1] (Hexadecane, 25 C) it was -2.77 log10 K; in series [1] (Hexane, 25 C), -2.59 log10 K; in series [1] (Methanol, 25 C) it was -0.14 log10 K; in series [1] (Octan-1-ol(dry), 25 C), -0.9 log10 K. Moreover, the log K of transfer, water to solvent was -0.67 log10 K in series [1] (Pentan-1-ol, 25 C); -0.59 log10 K in series [1] (Propan-1-ol, 25 C); -0.46 log10 K in series [1] (Propan-2-ol, 25 C); -0.9 log10 K in series [1] (Tetrahydrofuran, 25 C); -2.14 log10 K in series [1] (Toluene, 25 C); -0.755 log10 K in series [2].

On to `C1CCNC1`, for which the log K of transfer, water to solvent in series [2] is 0.465 log10 K.

As to `Cc1ccncc1`, the log K of transfer, water to solvent in series [1] (CCl4, 25 C) was 0.84 log10 K; in series [1] (Hexadecane, 25 C) it was 0.02 log10 K. Further, the log K of transfer, gas to solvent in series [3] (CCl4, 25 C) was 4.46 log10 K; in series [3] (Hexadecane, 25 C), 3.64 log10 K; in series [3] (Water, 25 C) it was 3.62 log10 K.

With `CNC(C)=O`, in series [1] (Hexadecane, 25 C), the log K of transfer, water to solvent is -3.9 log10 K. Besides, the log K of transfer, gas to solvent was 2.97 log10 K in series [3] (Hexadecane, 25 C) and 6.88 log10 K in series [3] (Water, 25 C).

As for `C=CCCCCCCC`, the log K of transfer, water to solvent in series [1] (Hexadecane, 25 C) is 5.58 log10 K; in series [1] (Octan-1-ol(dry), 25 C) it was 5.34 log10 K. In addition, the log K of transfer, gas to solvent was 4.07 log10 K in series [3] (Hexadecane, 25 C); 3.83 log10 K in series [3] (Octan-1-ol, 25 C); -1.51 log10 K in series [3] (Water, 25 C).
